Measured values taken from patent publication US20150135829A1, “Levitation of Materials in Paramagnetic Ionic Liquids” (Presidents and Fellows of Harvard College, priority 2012, published 2015).

How the values were obtained:
Assay type in all cases: physicochemical
[1] = Density and magnetic susceptibility of paramagnetic ionic liquids from MagLev levitation height of density standard beads; settings: for ρ (density) / χ (magnetic susceptibility): calculated from levitation height vs density of standard beads (Mirica et al. JACS 2009 method); for Accessible Density Range: range of densities that can be levitated in MagLev
Experimental: The density of a diamagnetic object was determined, from its levitation height, by suspending the object in a container filled with paramagnetic ionic liquid and placed the container between two NdFeB magnets oriented with like poles facing each other (see FIG. 5). Before using the paramagnetic ionic liquids as liquids for density based measurement using Maglev, the density and magnetic susceptibility of each paramagnetic ionic liquid was first determined (examples shown in FIG. 6). These properties can be calculated from a plot of the levitation height of objects with known density versus their density using previously disclosed methods. See, e.g., Mirica et al. JACS, 2009, 10049. See also, FIGS. 7-9, Table 1.

[2] = Thermal stability by thermal gravimetric analysis (TGA)
Experimental: The change in weight as a function of temperature was monitored by heating the sample from room temperature to 700° C. at a ramp rate of 10° C./min.
(§1) Except for [BMIM][FeCl4], [GlyC2][FeCl2][BMIM]2[MnCl4], all paramagnetic ionic liquids were synthesized by mixing appropriate equivalents of the halide starting materials in methanol and allowed to stir overnight. The solvent was removed in vacuo affording paramagnetic ionic liquids in nearly quantitative yield. The synthesis of [BMIM][FeCl4], [GlyC2][FeCl4] was carried out by following reported literature procedure (Satoshi Hayashi and Hiro-o Hamaguchi Chemistry Letters 2004, 33 (12) 1590-1591; Masanari Okuno and Hiro-o Hamaguchi Applied Physics Letters 2006, 89, 132506). Specifically, BMIM Cl and FeCl3 were mixed together in a 1:1 molar ratio and stirred under nitrogen atmosphere. After stirring for 10 minutes at room temperature, BMIM FeCl4 was obtained as a brown colored ionic liquid. This procedure was also used for BMIM MnCl4 except that the mixture was gently heated at 60° C. for 5 minutes. The synthesized paramagnetic ionic liquids were characterized using elemental analysis (Robertson Microlit Labs, NJ). The glass transition temperature (Tg), melting point (Tm), and decomposition temperatures (Tdec) of the synthesized paramagnetic ionic liquids were obtained respectively using dynamic scanning calorimetry (DSC), and thermal gravimetric analysis (TGA).
The thermal stability of the paramagnetic ionic liquids was measured using thermal gravimetric analysis (TGA). Most paramagnetic ionic liquids were thermally stable to at least 300° C. (see FIG. 4). The melting points (Tm), glass transition (Tg) and decomposition temperatures (Tdec) of the synthesized paramagnetic ionic liquids is provided below.

[3] = Glass transition temperature by differential scanning calorimetry (DSC); settings: cooling from 20° C. to −75° C. at 10° C./minute, then heating
Experimental: as §1, with “The glass transition temperature (Tg), melting point (Tm), and decomposition temperatures (Tdec) of the synthesized paramagnetic ionic liquids were obtained respectively using dynamic scanning calorimetry (DSC), and thermal gravimetric analysis (TGA).” left out
The glass transition temperatures and melting points of the synthesized paramagnetic ionic liquids were determined using differential scanning calorimetry (DSC) (see FIG. 3). […]

| Compound | magnetic susceptibility (χ) [1] | ρ (density) [1] | χ (magnetic susceptibility) [1] | Accessible Density Range [1] | Tdec (decomposition temperature) [2] | Tg (glass transition temperature) [3] |
| --- | --- | --- | --- | --- | --- | --- |
| CCCCn1cc[n+](C)c1.CCCCn1cc[n+](C)c1.CCCCn1cc[n+](C)c1.[Cl][Dy-3]([Cl])([Cl])([Cl])([Cl])[Cl] [[BMIM]3 [DyCl6]] | 12.4 ·10^−4 | 1.37 g/mL | 12.37 ×10^−4 | 0.72 to 2.01 g/mL | 350 °C |  |
| CCCCn1cc[n+](C)c1.[Cl][Fe-]([Cl])([Cl])[Cl] [[BMIM] [FeCl4]] |  | 1.39 g/mL | 8.28 ×10^−4 | 0.96 to 1.83 g/mL |  |  |
| COC(=O)[C@H](C)[NH3+].COC(=O)[C@H](C)[NH3+].COC(=O)[C@H](C)[NH3+].[Cl][Dy-3]([Cl])([Cl])([Cl])([Cl])[Cl] [[AlaC1]3 [DyCl6]] |  | 1.41 g/mL | 9.58 ×10^−4 | 0.91 to 1.91 g/mL |  |  |
| CCCC[n+]1ccn(C)c1.CCCC[n+]1ccn(C)c1.CCCC[n+]1ccn(C)c1.[Cl][Ho-3]([Cl])([Cl])([Cl])([Cl])[Cl] [[BMIM]3 [HoCl6]] |  | 1.29 g/mL | 5.40 ×10^−4 | 1.30 to 1.35 g/mL |  |  |
| CCCCCCCC[N+](C)(CCCCCCCC)CCCCCCCC.CCCCCCCC[N+](C)(CCCCCCCC)CCCCCCCC.CCCCCCCC[N+](C)(CCCCCCCC)CCCCCCCC.[Br][Ho-3]([Br])([Br])([Br])([Br])[Br] [[Aliq]3 [HoBr6]] |  | 1.08 g/mL | 1.37 ×10^−4 | 1.01 to 1.15 g/mL | 250 °C |  |
| CCCCCCCC[N+](C)(CCCCCCCC)CCCCCCCC.CCCCCCCC[N+](C)(CCCCCCCC)CCCCCCCC.[Cl][Mn-2]([Cl])([Cl])[Cl] [[Aliq]2 [MnCl4]] |  | 0.96 g/mL | 1.85 ×10^−4 | 0.90 to 100 g/mL |  |  |
| CCCCCCCC[N+](C)(CCCCCCCC)CCCCCCCC.CCCCCCCC[N+](C)(CCCCCCCC)CCCCCCCC.CCCCCCCC[N+](C)(CCCCCCCC)CCCCCCCC.[Cl][Ho-3]([Cl])([Cl])([Cl])([Cl])[Cl] [[Aliq]3 [HoCl6]] |  | 0.95 g/mL | 1.94 ×10^−4 | 0.85 to 1.05 g/mL |  |  |
| COC(=O)[C@H](C)[NH3+].COC(=O)[C@H](C)[NH3+].COC(=O)[C@H](C)[NH3+].[Cl][Gd-3]([Cl])([Cl])([Cl])([Cl])[Cl] [[AlaC1]3 [GdCl6]] |  | 1.31 g/mL | 8.24 ×10^−4 | 0.89 to 1.74 g/mL |  |  |
| COC(=O)[C@H](C)[NH3+].COC(=O)[C@H](C)[NH3+].COC(=O)[C@H](C)[NH3+].[Cl][Ho-3]([Cl])([Cl])([Cl])([Cl])[Cl] [[AlaC1]3 [HoCl6]] |  | 1.42 g/mL | 9.70 ×10^−4 | 0.92 to 1.93 g/mL |  |  |
| COC(=O)[C@H](C)[NH3+].COC(=O)[C@H](C)[NH3+].[Cl][Mn-2]([Cl])([Cl])[Cl] [[AlaC1]2 [MnCl4]] |  | 1.24 g/mL | 11.80 ×10^−4 | 0.63 to 1.86 g/mL |  |  |
| COC(=O)[C@H](C)[NH3+].[Cl][Fe-]([Cl])([Cl])[Cl] [[AlaC1] [FeCl4]] |  | 1.52 g/mL | 6.62 ×10^−4 | 1.15 to 1.93 g/mL |  |  |
| CCCCCCCCCCCCCC[P+](CCCCCC)(CCCCCC)CCCCCC.CCCCCCCCCCCCCC[P+](CCCCCC)(CCCCCC)CCCCCC.[Cl][Mn-2]([Cl])([Cl])[Cl] [[PR4]2[MnCl4]] |  |  |  |  |  | −69 °C |
| CCCC[n+]1ccn(C)c1.CCCC[n+]1ccn(C)c1.[Cl][Mn-2]([Cl])([Cl])[Cl] [[BMIM]2 [MnCl4]] |  | 1.24 g/mL | 2.75 ×10^−4 | 1.09 to 1.37 g/mL | 300 °C | −40 °C |
| CCCCCCCC[N+](C)(CCCCCCCC)CCCCCCCC.CCCCCCCC[N+](C)(CCCCCCCC)CCCCCCCC.CCCCCCCC[N+](C)(CCCCCCCC)CCCCCCCC.[Cl][Gd-3]([Cl])([Cl])([Cl])([Cl])[Cl] [[Aliq]3 [GdCl6]] |  | 0.97 g/mL | 0.55 ×10^−4 | 0.95 to 0.99 g/mL |  |  |
| CCCC[n+]1ccn(C)c1C.CCCC[n+]1ccn(C)c1C.CCCC[n+]1ccn(C)c1C.[Cl][Dy-3]([Cl])([Cl])([Cl])([Cl])[Cl] [[BDMIM]3 [DyCl6]] |  | 1.23 g/mL | 3.49 ×10^−4 | 1.05 to 1.41 g/mL |  |  |
